{"source": "paper doi:10.1101/2020.06.23.167346v1", "about": "(biorxiv, 2020)", "molecular_target": "T1, TcAK (T. cruzi arginine kinase) (Trypanosoma cruzi, UniProt O96507)", "T1 sequence (O96507 1-357)": "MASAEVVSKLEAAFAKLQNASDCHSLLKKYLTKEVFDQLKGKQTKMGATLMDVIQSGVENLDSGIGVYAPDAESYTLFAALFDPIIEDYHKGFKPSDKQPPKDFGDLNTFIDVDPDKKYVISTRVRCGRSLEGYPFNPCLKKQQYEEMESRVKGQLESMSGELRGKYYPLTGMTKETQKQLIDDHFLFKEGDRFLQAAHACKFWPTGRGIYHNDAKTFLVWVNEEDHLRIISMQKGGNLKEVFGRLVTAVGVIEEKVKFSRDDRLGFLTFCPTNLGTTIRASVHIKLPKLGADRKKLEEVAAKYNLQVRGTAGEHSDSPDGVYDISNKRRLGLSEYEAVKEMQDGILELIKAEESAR", "assay": "coupled pyruvate kinase / lactate dehydrogenase assay, NADH absorbance at […] nm", "format": "biochemical"}
{"smiles": "COc1cc(CNC(=O)CCCC/C=C/C(C)C)ccc1O", "note": "[capsaicin, (E)-N-(4-hydroxy-3-methoxybenzyl)-8-methyl-6-nonenamide]", "values": [{"measurement": "IC50", "value": "~800", "unit": "µM"}]}
